Assay results: patent EP2276483B1, “SOLID FORMS COMPRISING (+)-2-[1-(3-ETHOXY-4-METHOXYPHENYL)-2-METHYLSULFONYLETHYL]-4-ACETYLAMINOISOINDOLINE-1,3-DIONE, COMPOSITIONS THEREOF, AND USES THEREOF” (CELGENE CORPORATION, priority 2008, dated 2009)
≈ marks a conversion by molar mass, not a printed value.

What was measured:
[1] = target: PDE7 purified from Hut78 human T cells (Homo sapiens, UniProt Q13946); test: PDE7 enzyme assay; type: biochemical
Description: PDE7 is a cAMP-selective PDE expressed mainly in T cells and in skeletal muscle. T cell-derived cytokines such as IL-2 and IFN-γ are potentially regulatable via PDE7 inhibition. […] Compounds were tested against the PDE7 preparation in the presence of 10 nM cAMP as described for PDE4 in Table 1.

cAMP [2] = test: PGE2-induced cAMP elevation in human PBMC; type: cell-based; details: PGE2 (10µM)
Description: (§1) Prostaglandin E2 (PGE2) binds to prostanoid receptors on monocytes, T cells and other leukocytes and consequently elevates intracellular cAMP levels, resulting in inhibition of cellular responses. The combination of PGE2 and a PDE4 inhibitor synergistically elevates cAMP levels in these cell types, and the elevation of cAMP in PBMC caused by PDE4 inhibitors in the presence of PGE2 is proportional to the inhibitory activity of that PDE4 inhibitor. Intracellular cAMP was measured in human PBMC as follows. PBMC were isolated as described above and plated in 96-well plates at 1 x 10^6 cells per well in RPMI-1640. The cells were pre-treated with compounds at 100, 10, 1, 0.1, 0.01, and 0 µM in a final concentration of 2% DMSO in duplicate at 37°C in a humidified incubator at 5% CO2 for one hour. The cells were then stimulated with PGE2 (10µM) (Sigma) for 1h. The cells were lysed with HCl, 0.1 N final concentration to inhibit phosphodiesterase activity and the plates were frozen at -20°C. The cAMP produced was measured using cAMP (low pH) Immunoassay kit (R&D Systems).

LTB4 = test: fMLF-induced LTB4 production in neutrophils; type: cell-based; details: Neutrophil; human neutrophils; 1 µM fMLF
Description: N-formyl-methionine-leucine-phenylalanine (fMLF) is a bacterially derived peptide that activates neutrophils to rapidly degranulate, migrate, adhere to endothelial cells, and release leukotriene LTB4, a product of arachidonic acid metabolism and itself a neutrophil chemoattractant. Compounds were tested for the ability to block fMLF-induced neutrophil LTB4 production as previously described (Hatzelmann and Schudt, 2001, J. Pharm. Exp. Ther., 297:267-279), with the following modifications. Neutrophils were isolated as described above and resuspended in phosphate-buffered saline without calcium or magnesium (BioWhittaker) containing 10 mM HEPES pH 7.2 and plated in 96-well tissue culture plates at a concentration of 1.7 x 10^6 cells/well. Cells were treated with 50 µM thimerosal (Sigma)/1 mM CaCl2/1 mM MgCl2 for 15 minutes at 37°C 5% CO2, then treated with compounds at 1000, 200, 40, 8, 1.6, 0.32, 0.064, and 0 nM in a final DMSO concentration of 0.01 % in duplicate for 10 minutes. Neutrophils were stimulated with 1 µM fMLF for 30 minutes, then lysed by the addition of methanol (20% final concentration) and frozen in a dry ice/isopropanol bath for 10 minutes. Lysates were stored at -70°C until the LTB4 content was measured by competitive LTB4 ELISA (R&D Systems).

bovine PDE1 = test: PDE1 enzyme assay; type: biochemical; details: for PDE Specificity Ratio PDE4/PDE1: from above data
human PDE2 = human PDE2 (Homo sapiens, UniProt O00408); test: PDE2 enzyme assay; type: biochemical; details: for PDE Specificity Ratio PDE4/PDE2: from above data
Sequence of human PDE2 (O00408 whole entry): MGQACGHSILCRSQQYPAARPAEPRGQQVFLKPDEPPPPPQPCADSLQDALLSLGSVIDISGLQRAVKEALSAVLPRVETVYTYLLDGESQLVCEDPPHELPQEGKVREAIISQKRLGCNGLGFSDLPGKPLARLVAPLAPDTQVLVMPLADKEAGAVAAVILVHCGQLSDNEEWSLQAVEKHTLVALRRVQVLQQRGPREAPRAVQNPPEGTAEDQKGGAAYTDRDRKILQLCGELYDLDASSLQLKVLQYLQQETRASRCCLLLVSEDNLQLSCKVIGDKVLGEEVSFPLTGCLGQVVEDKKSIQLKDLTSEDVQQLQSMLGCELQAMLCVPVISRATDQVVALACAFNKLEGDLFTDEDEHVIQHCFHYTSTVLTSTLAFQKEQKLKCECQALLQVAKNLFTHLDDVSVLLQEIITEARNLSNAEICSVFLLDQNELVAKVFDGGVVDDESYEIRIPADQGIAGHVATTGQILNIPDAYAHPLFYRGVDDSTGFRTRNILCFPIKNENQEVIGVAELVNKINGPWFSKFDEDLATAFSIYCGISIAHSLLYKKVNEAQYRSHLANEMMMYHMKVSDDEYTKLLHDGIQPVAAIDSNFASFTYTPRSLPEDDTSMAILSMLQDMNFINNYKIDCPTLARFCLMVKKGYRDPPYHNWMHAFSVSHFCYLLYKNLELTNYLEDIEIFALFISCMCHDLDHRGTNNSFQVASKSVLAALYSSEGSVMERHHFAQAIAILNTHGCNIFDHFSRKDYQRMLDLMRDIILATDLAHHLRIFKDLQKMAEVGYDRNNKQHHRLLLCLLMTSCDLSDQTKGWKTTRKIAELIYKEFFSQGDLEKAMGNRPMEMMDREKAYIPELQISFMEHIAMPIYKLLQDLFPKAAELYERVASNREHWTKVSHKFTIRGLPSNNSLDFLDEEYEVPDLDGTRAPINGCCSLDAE

[3] = target: PDE3 from human platelets (Homo sapiens, UniProt Q14432); test: PDE3 enzyme assay; type: biochemical; details: for PDE Specificity Ratio PDE4/PDE3: from above data
Sequence of PDE3 from human platelets (Q14432 whole entry): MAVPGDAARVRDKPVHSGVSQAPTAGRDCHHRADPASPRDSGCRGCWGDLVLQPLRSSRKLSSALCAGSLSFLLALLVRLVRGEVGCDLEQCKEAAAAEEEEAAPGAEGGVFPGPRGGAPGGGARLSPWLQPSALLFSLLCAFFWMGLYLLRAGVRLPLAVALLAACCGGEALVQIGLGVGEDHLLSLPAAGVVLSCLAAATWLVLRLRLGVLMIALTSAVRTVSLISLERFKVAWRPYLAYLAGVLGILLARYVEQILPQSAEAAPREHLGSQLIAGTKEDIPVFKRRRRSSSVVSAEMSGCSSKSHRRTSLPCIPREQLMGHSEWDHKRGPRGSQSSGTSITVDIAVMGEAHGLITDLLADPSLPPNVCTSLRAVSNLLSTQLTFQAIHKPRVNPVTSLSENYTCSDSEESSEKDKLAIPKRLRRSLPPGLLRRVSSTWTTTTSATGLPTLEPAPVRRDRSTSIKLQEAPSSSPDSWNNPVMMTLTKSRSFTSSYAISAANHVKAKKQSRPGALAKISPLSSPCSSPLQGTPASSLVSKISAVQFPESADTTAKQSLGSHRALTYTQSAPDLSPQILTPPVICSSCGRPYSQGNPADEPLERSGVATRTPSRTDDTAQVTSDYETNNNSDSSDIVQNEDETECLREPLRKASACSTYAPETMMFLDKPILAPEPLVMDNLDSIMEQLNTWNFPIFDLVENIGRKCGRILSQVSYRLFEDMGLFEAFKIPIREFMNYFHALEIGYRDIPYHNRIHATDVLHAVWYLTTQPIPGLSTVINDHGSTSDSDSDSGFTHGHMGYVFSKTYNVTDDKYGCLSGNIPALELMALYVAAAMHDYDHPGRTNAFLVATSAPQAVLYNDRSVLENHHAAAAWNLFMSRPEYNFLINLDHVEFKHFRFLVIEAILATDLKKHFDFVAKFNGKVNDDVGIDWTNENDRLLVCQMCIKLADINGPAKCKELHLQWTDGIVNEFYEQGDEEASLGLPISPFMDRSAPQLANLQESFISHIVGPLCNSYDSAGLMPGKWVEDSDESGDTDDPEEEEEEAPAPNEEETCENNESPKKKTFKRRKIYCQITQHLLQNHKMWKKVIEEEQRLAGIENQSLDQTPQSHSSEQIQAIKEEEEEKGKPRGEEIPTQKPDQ

cAMP [4] = test: PGE2-induced cAMP elevation in human neutrophils; type: cell-based; details: Neutrophil
Description: as §1
Elevation of cAMP in human neutrophils was measured as follows. PBMC were removed from source leukocytes (Sera-Tec Biologicals) by centrifugation on Ficoll-Paque Plus (Amersham Pharmacia). […]

PDE4 (from U937 cells) = test: PDE4 (U937 cell-derived) enzyme assay; type: biochemical, human; details: 1 µM cAMP
Description: PDE4 enzyme was purified from U937 human monocytic cells by gel filtration chromatography as previously described (Muller et al., 1998, Bioorg. & Med. Chem. Lett. 8:2669-2674). Phosphodiesterase reactions were carried out in 50 mM Tris HCl pH 7.5, 5 mM MgCl2, 1 µM cAMP, 10 nM [^3H]-cAMP for 30 min at 30°C, terminated by boiling, treated with 1 mg/ml snake venom, and separated using AG-1XS ion exchange resin (BioRad) as described (Muller et al., 1998, Bioorg. & Med. Chem. Lett. 8:2669-2674). Reactions consumed less than 15% of available substrate. Table 1. PDE Specificity

[5] = Aqueous equilibrium solubility in pH 7.4 buffer; type: physicochemical; details: thermodynamic from solid; pH 7.4 aqueous buffer, room temperature; read-out: Measured solubility
Description: Equilibrium solubilities were measured in pH 7.4 aqueous buffer. The pH 7.4 buffer was prepared by adjusting the pH of a 0.07 M NaH2PO4 solution to 7.4 with 10 N NaOH. The ionic strength of the solution was 0.15. At least 1 mg of powder was combined with 1 ml of buffer to make >1 mg/ml mixture. These samples were shaken for >2 hours and left to stand overnight at room temperature. The samples were then filtered through a 0.45-µm Nylon syringe filter that was first saturated with the sample. The filtrate was sampled twice, consecutively. The filtrate was assayed by HPLC against standards prepared in 50% methanol.

[6] = target: T1, PDE5 from human platelets (Homo sapiens, UniProt O76074); test: PDE5 enzyme assay; type: biochemical; details: for PDE Specificity Ratio PDE4/PDE5: from above data
T1 construct: PDE5 from human platelets; from tissue; host or cells: human platelets

[7] = target: T2, PDE6 from bovine retinal rod outer segments (Bos taurus, UniProt P11541+P23439); test: PDE6 enzyme assay; type: biochemical
T2 construct: PDE6 from bovine retinal rod outer segments; from tissue; host or cells: bovine retinal rod outer segments
T2 sequence (P11541 2-856 limits assumed): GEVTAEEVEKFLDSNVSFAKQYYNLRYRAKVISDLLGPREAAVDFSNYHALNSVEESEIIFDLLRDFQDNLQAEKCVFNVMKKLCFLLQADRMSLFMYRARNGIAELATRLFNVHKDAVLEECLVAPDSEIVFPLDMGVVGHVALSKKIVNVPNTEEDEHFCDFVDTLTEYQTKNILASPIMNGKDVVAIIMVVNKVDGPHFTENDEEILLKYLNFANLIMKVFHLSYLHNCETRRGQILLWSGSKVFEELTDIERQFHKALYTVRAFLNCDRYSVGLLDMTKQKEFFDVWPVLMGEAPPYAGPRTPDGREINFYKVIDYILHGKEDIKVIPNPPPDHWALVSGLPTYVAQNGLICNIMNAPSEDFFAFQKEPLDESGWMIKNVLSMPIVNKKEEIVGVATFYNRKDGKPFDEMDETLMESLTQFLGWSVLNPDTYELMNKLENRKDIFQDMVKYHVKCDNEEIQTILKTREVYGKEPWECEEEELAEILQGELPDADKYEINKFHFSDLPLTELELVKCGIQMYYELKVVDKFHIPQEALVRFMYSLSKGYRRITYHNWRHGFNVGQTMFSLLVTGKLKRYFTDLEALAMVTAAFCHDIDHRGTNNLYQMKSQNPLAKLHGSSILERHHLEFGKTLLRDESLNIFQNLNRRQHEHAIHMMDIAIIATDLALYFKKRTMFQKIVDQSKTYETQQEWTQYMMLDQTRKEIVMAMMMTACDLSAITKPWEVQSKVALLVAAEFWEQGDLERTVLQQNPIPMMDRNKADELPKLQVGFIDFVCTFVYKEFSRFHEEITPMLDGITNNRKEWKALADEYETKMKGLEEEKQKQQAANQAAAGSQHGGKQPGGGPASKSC
T2 sequence (P23439 2-850 limits assumed): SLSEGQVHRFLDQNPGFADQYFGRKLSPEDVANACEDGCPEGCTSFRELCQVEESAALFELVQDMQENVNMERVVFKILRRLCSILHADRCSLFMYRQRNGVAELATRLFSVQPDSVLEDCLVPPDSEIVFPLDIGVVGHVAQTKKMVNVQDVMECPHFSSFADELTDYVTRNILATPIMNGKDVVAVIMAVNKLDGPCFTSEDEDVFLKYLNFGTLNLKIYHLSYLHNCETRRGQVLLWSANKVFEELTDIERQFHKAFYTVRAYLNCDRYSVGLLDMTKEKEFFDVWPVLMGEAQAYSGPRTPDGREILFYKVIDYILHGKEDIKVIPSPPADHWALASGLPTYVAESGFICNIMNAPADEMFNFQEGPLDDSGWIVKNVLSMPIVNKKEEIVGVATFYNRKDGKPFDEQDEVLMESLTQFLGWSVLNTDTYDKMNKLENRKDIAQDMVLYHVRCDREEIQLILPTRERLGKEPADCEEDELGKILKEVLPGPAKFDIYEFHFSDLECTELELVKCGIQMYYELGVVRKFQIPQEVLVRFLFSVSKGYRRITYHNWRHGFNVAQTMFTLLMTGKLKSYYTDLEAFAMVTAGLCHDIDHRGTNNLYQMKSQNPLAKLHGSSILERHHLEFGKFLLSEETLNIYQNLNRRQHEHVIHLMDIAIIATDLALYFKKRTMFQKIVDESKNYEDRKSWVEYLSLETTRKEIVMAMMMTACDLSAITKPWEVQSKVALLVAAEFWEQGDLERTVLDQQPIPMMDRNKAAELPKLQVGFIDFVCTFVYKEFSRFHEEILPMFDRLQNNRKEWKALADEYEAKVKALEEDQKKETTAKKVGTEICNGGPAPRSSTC

Sequence of PDE7 purified from Hut78 human T cells (Q13946 whole entry): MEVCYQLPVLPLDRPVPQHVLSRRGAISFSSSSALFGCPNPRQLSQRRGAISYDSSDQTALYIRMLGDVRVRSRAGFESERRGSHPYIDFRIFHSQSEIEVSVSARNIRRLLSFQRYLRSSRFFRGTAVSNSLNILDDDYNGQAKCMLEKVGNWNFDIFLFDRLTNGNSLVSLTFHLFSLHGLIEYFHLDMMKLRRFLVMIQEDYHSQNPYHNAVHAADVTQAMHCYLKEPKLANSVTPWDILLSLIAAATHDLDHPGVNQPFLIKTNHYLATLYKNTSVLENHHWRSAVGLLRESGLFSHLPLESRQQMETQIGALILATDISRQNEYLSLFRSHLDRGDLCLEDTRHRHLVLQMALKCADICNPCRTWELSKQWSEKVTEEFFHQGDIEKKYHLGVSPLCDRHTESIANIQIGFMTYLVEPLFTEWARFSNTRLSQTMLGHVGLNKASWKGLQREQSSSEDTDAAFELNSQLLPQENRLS

Row | PDE2(% inhib at 10 µM) (human PDE2; 10 µM) [%] | PDE3 (% inhib at 10 µM) ([3]; 10 µM) [%] | PDE6 (% inhib at 10 µM) ([7]; 10 µM) [%] | PDE Specificity Ratio PDE4/PDE6 ([7]; from above data) [fold] | PDE5 (% inhib at 10 µM) ([6]; 10 µM) [%] | SMILES | IC50 ([1]; 10 nM cAMP) [µM] | PDE Specificity Ratio PDE7 IC50/PDE4 IC50 ([1]; from above data) [fold] | EC50 (cAMP [2]) [µM] | IC50 (LTB4) [nM] | PDE1 (% inhib at 10 µM) (bovine PDE1) [%] | PDE Specificity Ratio PDE4/PDE1 (bovine PDE1) [fold] | PDE Specificity Ratio PDE4/PDE2 (human PDE2) [fold] | inhibition at 10 µM (human PDE2; read-out: PDE2(% inhib at 10 µM)) [%] | PDE Specificity Ratio PDE4/PDE3 [3] [fold] | inhibition at 10 µM ([3]; read-out: PDE3 (% inhib at 10 µM)) [%] | EC50 (cAMP [4]) [µM] | IC50 (PDE4 (from U937 cells)) [nM] | solubility [5] [µg/mL] | PDE Specificity Ratio PDE4/PDE5 [6] [fold] | inhibition at 10 µM ([6]; read-out: PDE5 (% inhib at 10 µM)) [%]
1 | – | – | – | – | – | CCOc1cc(C(CS(C)(=O)=O)N2C(=O)c3cccc(NC(C)=O)c3C2=O)ccc1OC (racemic) [Racemic Compound, 2-[1-(3-Ethoxy-4-methoxyphenyl)-2-methylsulfonylethyl]-4-acetylaminoisoindoline-1,3-dione] | 22.1 | 270 | 3.09 | 20.1 | 9 | >2700 | >800 | 19 | >670 | 21 | 12.6 | 81.8 | 3.4 (≈ 7.38 µM) | >12000 | 3
2 | 10 | 31 | 10 | >250 | -9 | CCOc1cc([C@H](CS(C)(=O)=O)N2C(=O)c3cccc(NC(C)=O)c3C2=O)ccc1OC [Compound B] | – | – | – | – | 27 | >50 | >260 | – | >45 | – | – | 611 | – | >39000 | –
